Laboratory results published in patent US20200362174A1, “COMPOUNDS AND METHODS FOR OPTICAL SENSING OF ELECTRICAL ACTIVITY IN BIOLOGICAL SYSTEMS” (UNIVERSITY OF CONNECTICUT, priority 2018, published 2020).
Where “and” joins values, the source holds several entries; their conditions need not be identical. Equal values may be shown once. Entries after “also recorded” stand apart in the source; their conditions may differ. Where a name gives a salt, the structure may show the parent alone.

Tests used:
[1] = voltage sensitivity testing on the voltage clamped hemispherical lipid bilayer (HLB) apparatus
[2] = water solubility / deliverability to membranes (in words); assay type: physicochemical; conditions: delivery to the membrane

SMILES | voltage sensitivity / voltage dependence in words [1] | ΔF/F per 100 mV in Dynamic Range (mV) ([1]; dynamic range [−100, 0] mV) | τ-off [1] | τ-on [1] | other results
CCCCN(CCCC)c1ccc2cc(C=Cc3cc[n+](CCCS(=O)(=O)[O-])cc3)ccc2c1 [Di-4-ANEPPS, 4-(2-(6-(dibutylamino)-2-naphthalenyl)ethenyl)-1-(3-sulfopropyl)pyridinium hydroxide inner salt, reference compound] | approximately linear voltage dependence | – | – | – | voltage sensitivity ([1]; approximately linear over a broad range of applied voltage): 12 %/100 mV
CN(CCCCCCCCCCCCNC(=O)CCCCCCCCCCCNC(=O)CCc1c([N+](=O)[O-])cc([N+](=O)[O-])c(Nc2c([N+](=O)[O-])cc([N+](=O)[O-])cc2[N+](=O)[O-])c1[N+](=O)[O-])c1ccc2cc(/C=C/c3cc[n+](CCCCS(=O)(=O)[O-])cc3)ccc2c1 [PY6256] | – | 24% | – | – | ΔF/F per 100 mV in Dynamic Range (mV) ([1]; dynamic range [0, 100] mV): 39%
CN(CCCCCCCCCCCCNC(=O)CCCCCCCCCCCNC(=O)COCCOCCNC(=O)CCc1c([N+](=O)[O-])cc([N+](=O)[O-])c([N-]c2c([N+](=O)[O-])cc([N+](=O)[O-])cc2[N+](=O)[O-])c1[N+](=O)[O-])c1ccc2cc(/C=C/c3cc[n+](CCOCCOCCO)cc3)ccc2c1 [PY6242] | – | – | – | – | solubility in words [2]: Low solubility
CC[N+](CC)(CC)CCC[n+]1ccc(/C=C/c2ccc3cc(N(C)CCCCCCCCCCCCNC(=O)CCCCCCCCCCCNC(=O)COCCOCCNC(=O)CCc4c([N+](=O)[O-])cc([N+](=O)[O-])c(Nc5c([N+](=O)[O-])cc([N+](=O)[O-])cc5[N+](=O)[O-])c4[N+](=O)[O-])ccc3c2)cc1 [TBFQ 17] | better sensitivity than TBFQ 16; also recorded: responses in the physiological range that are larger than any previous fast VSDs | 66 ± 15% | 7 ± 2 ms | 12 ± 2 ms | –
CC[N+](CC)(CC)CCC[n+]1ccc(/C=C/c2ccc3cc(N(C)CCOCCOCCNC(=O)CCCCCCCCCCCNC(=O)COCCOCCNC(=O)CCc4c([N+](=O)[O-])cc([N+](=O)[O-])c(Nc5c([N+](=O)[O-])cc([N+](=O)[O-])cc5[N+](=O)[O-])c4[N+](=O)[O-])ccc3c2)cc1 [TBFQ 16] | high voltage sensitivity | – | 5 ± 1 ms | 11 ± 2 ms | change in fluorescence/100 mV ([1]; […], dye on the inside, 20 ms voltage steps): 36%; ΔF/F per 100 mV in Dynamic Range (mV) ([1]; dynamic range [−200, −100] mV): 56 ± 13%
CC[N+](CC)(CC)CCC[n+]1ccc(/C=C/c2ccc3cc(N(C)CCCCCCCCCCCCNC(=O)CCCCCCCCCCCNC(=O)CCc4c([N+](=O)[O-])cc([N+](=O)[O-])c(Nc5c([N+](=O)[O-])cc([N+](=O)[O-])cc5[N+](=O)[O-])c4[N+](=O)[O-])ccc3c2)cc1 [TBFQ 15] | – | – | – | – | ΔF/F per 100 mV ([1]; no dynamic range printed, electrochromic behavior): 8% and 8 ± 3%
